Patent publication US20220296526A1, “CANNABINOID COMPOSITIONS, METHODS OF MAKING SAME AND USES THEREOF” (HEXO OPERATIONS INC., priority 2019, published 2022)
Where “and” joins values, the source holds several entries; their conditions need not be identical. Identical values can stand only once.

Test: DLS particle size tracking around spray drying (nanoemulsion, solubilized carrier, pre-spray dried mixture, re-hydrated powder)
Type: physicochemical
Conditions: solubilized carrier alone, 0.4 g/ml
Protocol: Particle size of all nanoemulsions was measured in water solution at 25° C. using dynamic light scattering (DLS). All samples in the present disclosure have been analyzed at a dilution of 1/20 in purified water using a LiteSizer™ (Anton Paar GmbH, Germany).
The resulting spray dried emulsion powder was analyzed by performing a rehydration and then performing a visual inspection for turbidity and DLS analysis for particle size tracking of the generated emulsion (see Table 9).

With `OC[C@@H](O)[C@@H](O)[C@H](O)[C@H](O)CO` [Pearlitol (Mannitol), Mannitol] the “Particle Size Carrier” value was 287 nm, poor signal and 225 nm, poor signal.
